According to the supplement of paper PMC10307832:

Tests used:
Assay in all cases: relative viability (nuclei count vs DMSO), 5 days (fraction); higher = more cells survive
EKVX = test system: EKVX
Summary of the method: (§1)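 Cells from lung cancer lines were seeded into 1536-well plates and, one day later, dosed by pin tool. Treatments were either a single drug or a fixed dose of an anchor drug with five library-drug doses (not always all listed) in √10 steps. After 5 days, nuclei were stained in a one-step fixation (final 0.05% Triton X-100, 1% formaldehyde, 1 ug/ml Hoechst) and counted on 4× images, and relative viability is the treated-to-vehicle nuclei ratio, as the median of duplicate plates.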

HCC-827 = test system: HCC-827
Summary of the method: as §1

PC-3 [JPC-3] = test system: PC-3 [JPC-3]
Summary of the method: as §1

NCI-H661 = test system: NCI-H661
Summary of the method: as §1

NCI-H1650 = test system: NCI-H1650
Summary of the method: as §1

NCI-H1975 = test system: NCI-H1975
Summary of the method: as §1

PC-14 = test system: PC-14
Summary of the method: as §1

LK-2 = test system: LK-2
Summary of the method: as §1

RERF-LC-KJ = test system: RERF-LC-KJ
Summary of the method: as §1

H3255 = test system: H3255
Summary of the method: as §1

NCI-H1355 = test system: NCI-H1355
Summary of the method: as §1

NCI-H2405 = test system: NCI-H2405
Summary of the method: as §1

NCI-H2342 = test system: NCI-H2342
Summary of the method: as §1

NCI-H2228 = test system: NCI-H2228
Summary of the method: as §1

CAL-12T = test system: CAL-12T
Summary of the method: as §1

NCI-H520 = test system: NCI-H520
Summary of the method: as §1

HCC-15 = test system: HCC-15
Summary of the method: as §1

NCI-H1734 = test system: NCI-H1734
Summary of the method: as §1

NCI-H1755 = test system: NCI-H1755
Summary of the method: as §1

NCI-H322M = test system: NCI-H322M
Summary of the method: as §1

LCLC-97TM1 = test system: LCLC-97TM1
Summary of the method: as §1

**Q.** What does the source list for CCN(CC)CCCCNc1ncc2cc(-c3cc(OC)cc(OC)c3)c(NC(=O)NC(C)(C)C)nc2n1 + CC(=O)c1c(C)c2cnc(Nc3ccc(N4CCNCC4)cn3)nc2n(C2CCCC2)c1=O [Palbociclib] (partner 0.5 µM)?
**A.** relative viability (EKVX; first compound 0.03162 µM): 0.406; relative viability (EKVX; first compound 0.1 µM): 0.31; relative viability (EKVX; first compound 0.3162 µM): 0.817; relative viability (EKVX; first compound 1 µM): 0.413; relative viability (HCC-827; first compound 0.01 µM): 0.49; relative viability (HCC-827; first compound 0.03162 µM): 0.473; relative viability (HCC-827; first compound 0.1 µM): 0.507; relative viability (HCC-827; first compound 0.3162 µM): 0.644; relative viability (HCC-827; first compound 1 µM): 0.454; relative viability (PC-3 [JPC-3]; first compound 0.03162 µM): 0.607; relative viability (PC-3 [JPC-3]; first compound 0.1 µM): 0.616; relative viability (PC-3 [JPC-3]; first compound 0.3162 µM): 0.539; relative viability (PC-3 [JPC-3]; first compound 1 µM): 0.58; relative viability (NCI-H661; first compound 0.01 µM): 0.394; relative viability (NCI-H661; first compound 0.03162 µM): 0.41; relative viability (NCI-H661; first compound 0.1 µM): 0.418; relative viability (NCI-H661; first compound 0.3162 µM): 0.444; relative viability (NCI-H661; first compound 1 µM): 0.38; relative viability (NCI-H1650; first compound 0.01 µM): 0.311; relative viability (NCI-H1650; first compound 0.03162 µM): 0.338; relative viability (NCI-H1650; first compound 0.1 µM): 0.354; relative viability (NCI-H1650; first compound 0.3162 µM): 0.308; relative viability (NCI-H1650; first compound 1 µM): 0.296; relative viability (NCI-H1975; first compound 0.01 µM): 0.608; relative viability (NCI-H1975; first compound 0.03162 µM): 0.498; relative viability (NCI-H1975; first compound 0.1 µM): 0.589; relative viability (NCI-H1975; first compound 0.3162 µM): 0.697; relative viability (NCI-H1975; first compound 1 µM): 0.475; relative viability (PC-14; first compound 0.01 µM): 0.599; relative viability (PC-14; first compound 0.03162 µM): 0.467; relative viability (PC-14; first compound 0.1 µM): 0.654; relative viability (PC-14; first compound 0.3162 µM): 0.564; relative viability (PC-14; first compound 1 µM): 0.56; relative viability (LK-2; first compound 0.01 µM): 0.65; relative viability (LK-2; first compound 0.03162 µM): 0.66; relative viability (LK-2; first compound 0.1 µM): 0.637; relative viability (LK-2; first compound 0.3162 µM): 0.502; relative viability (LK-2; first compound 1 µM): 0.156; relative viability (RERF-LC-KJ; first compound 0.01 µM): 1.07; relative viability (RERF-LC-KJ; first compound 0.03162 µM): 1.12; relative viability (RERF-LC-KJ; first compound 0.1 µM): 1.2; relative viability (RERF-LC-KJ; first compound 0.3162 µM): 1.13; relative viability (RERF-LC-KJ; first compound 1 µM): 1.05; relative viability (H3255; first compound 0.01 µM): 0.317; relative viability (H3255; first compound 0.03162 µM): 0.292; relative viability (H3255; first compound 0.1 µM): 0.388; relative viability (H3255; first compound 0.3162 µM): 0.315; relative viability (H3255; first compound 1 µM): 0.317; relative viability (NCI-H1355; first compound 0.01 µM): 0.378; relative viability (NCI-H1355; first compound 0.03162 µM): 0.402; relative viability (NCI-H1355; first compound 0.1 µM): 0.465; relative viability (NCI-H1355; first compound 0.3162 µM): 0.376; relative viability (NCI-H1355; first compound 1 µM): 0.364; relative viability (NCI-H2405; first compound 0.01 µM): 0.567; relative viability (NCI-H2405; first compound 0.03162 µM): 0.564; relative viability (NCI-H2405; first compound 0.1 µM): 0.539; relative viability (NCI-H2405; first compound 0.3162 µM): 0.534; relative viability (NCI-H2405; first compound 1 µM): 0.52; relative viability (NCI-H2342; first compound 0.01 µM): 0.514; relative viability (NCI-H2342; first compound 0.03162 µM): 0.514; relative viability (NCI-H2342; first compound 0.1 µM): 0.528; relative viability (NCI-H2342; first compound 0.3162 µM): 0.548; relative viability (NCI-H2342; first compound 1 µM): 0.556; relative viability (NCI-H2228; first compound 0.01 µM): 1.23; relative viability (NCI-H2228; first compound 0.03162 µM): 0.561; relative viability (NCI-H2228; first compound 0.1 µM): 0.434; relative viability (NCI-H2228; first compound 0.3162 µM): 0.862; relative viability (NCI-H2228; first compound 1 µM): 0.513; relative viability (CAL-12T; first compound 0.01 µM): 0.411; relative viability (CAL-12T; first compound 0.03162 µM): 0.456; relative viability (CAL-12T; first compound 0.1 µM): 0.518; relative viability (CAL-12T; first compound 0.3162 µM): 0.419; relative viability (CAL-12T; first compound 1 µM): 0.408; relative viability (NCI-H520; first compound 0.01 µM): 0.22; relative viability (NCI-H520; first compound 0.03162 µM): 0.22; relative viability (NCI-H520; first compound 0.1 µM): 0.217; relative viability (NCI-H520; first compound 0.3162 µM): 0.175; relative viability (NCI-H520; first compound 1 µM): 0.15; relative viability (HCC-15; first compound 0.01 µM): 0.82; relative viability (HCC-15; first compound 0.03162 µM): 0.826; relative viability (HCC-15; first compound 0.1 µM): 0.826; relative viability (HCC-15; first compound 0.3162 µM): 0.797; relative viability (HCC-15; first compound 1 µM): 0.729; relative viability (NCI-H1734; first compound 0.01 µM): 0.16; relative viability (NCI-H1734; first compound 0.03162 µM): 0.281; relative viability (NCI-H1734; first compound 0.1 µM): 0.334; relative viability (NCI-H1734; first compound 0.3162 µM): 0.38; relative viability (NCI-H1734; first compound 1 µM): 0.323; relative viability (NCI-H1755; first compound 0.01 µM): 0.474; relative viability (NCI-H1755; first compound 0.03162 µM): 0.448; relative viability (NCI-H1755; first compound 0.1 µM): 0.462; relative viability (NCI-H1755; first compound 0.3162 µM): 0.472; relative viability (NCI-H1755; first compound 1 µM): 0.459; relative viability (NCI-H322M; first compound 0.01 µM): 0.516; relative viability (NCI-H322M; first compound 0.03162 µM): 0.45; relative viability (NCI-H322M; first compound 0.1 µM): 0.508; relative viability (NCI-H322M; first compound 0.3162 µM): 0.504; relative viability (NCI-H322M; first compound 1 µM): 0.474; relative viability (LCLC-97TM1; first compound 0.01 µM): 0.205; relative viability (LCLC-97TM1; first compound 0.03162 µM): 0.203; relative viability (LCLC-97TM1; first compound 0.1 µM): 0.297; relative viability (LCLC-97TM1; first compound 0.3162 µM): 0.238; relative viability (LCLC-97TM1; first compound 1 µM): 0.218
